How the values were obtained:
[1] = biological target: T1, Akt3 (Homo sapiens, UniProt Q9Y243); assay: Akt activation assay (PDK1-mediated activation, LANCE Ultra crosstide TR-FRET), Akt3; format: biochemical; conditions: read-out: Biological Assay 1 IC50 (nM) Akt3
T1 construct: unspecified tag, removed (detagged) (cleaved yes); purchased SignalChem and Proteros (Akt3); Merck Millipore (PDK1) 14-452 (PDK1); none given for Akt3
Method in brief: (§1)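 This TR-FRET readout (Eu-anti-phospho-crosstide antibody, 665/615 nm) measured PDK1-driven activation of Akt. Compound was first preincubated with each Akt isoform: Akt1 5 nM; Akt2 15 nM SignalChem or 5 nM Proteros; Akt3 3 nM SignalChem or 5 nM Proteros. Reactions then ran 30 min with 5 nM PDK1, lipid vesicles containing 0.55 µM PtdIns(3,4,5)P3, 100 µM ATP and 100 nM crosstide at pH 7.5, and IC50 came from a 4-parameter equation.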

[2] = biological target: T2, p-Akt3 in WM115 cells (Homo sapiens, UniProt Q9Y243); assay: Phospho-Akt cellular SureFire assay, p-Akt3 in WM115 cells; format: cell-based; conditions: insulin stimulated, read-out: Biological Assay 2 IC50 (nM) Akt3 WM115
T2 construct: SureFire assays to detect cellular p-Akt1, p-Akt2 and p-Akt3 levels in WM115 cells (Akt2/3) and LNCaP cells (Akt1); endogenous in cells; host or cells: WM115 (ECACC 91061232), insulin-stimulated
Method in brief: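 pThr308-Akt3 in lysates was quantified by bead-proximity SureFire detection, pairing a phospho-specific antibody with a total Akt3 antibody. Before lysis, WM115 cells in 0.1% FBS medium were treated for 15 min at 37 °C with compound (final DMSO 0.3%), following a 10 min stimulation with 100 nM insulin. IC50 was obtained by 4-parameter fitting.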

[3] = biological target: T3, p-Akt1 in LNCaP cells (Homo sapiens, UniProt P31749); assay: Phospho-Akt cellular SureFire assay, p-Akt1 in LNCaP cells; format: cell-based; conditions: read-out: Biological Assay 2 IC50 (nM) Akt1 LNCaP
T3 construct: SureFire assays to detect cellular p-Akt1, p-Akt2 and p-Akt3 levels in WM115 cells (Akt2/3) and LNCaP cells (Akt1); endogenous in cells; host or cells: LNCaP (ECACC 89110211)
Method in brief: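 Phospho-Thr308 Akt1 detected by AlphaScreen SureFire proximity beads in LNCaP lysates after 15 min compound treatment at 37 °C in 0.1% FBS medium, unstimulated, 0.3% DMSO. Cells plated at 5×10^4/well overnight; IC50 from a 4-parameter equation.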

[4] = biological target: T4, p-Akt2 in WM115 cells (Homo sapiens, UniProt P31751); assay: Phospho-Akt cellular SureFire assay, p-Akt2 in WM115 cells; format: cell-based; conditions: insulin stimulated, read-out: Biological Assay 2 IC50 (nM) Akt2 WM115
T4 construct: SureFire assays to detect cellular p-Akt1, p-Akt2 and p-Akt3 levels in WM115 cells (Akt2/3) and LNCaP cells (Akt1); endogenous in cells; host or cells: WM115 (ECACC 91061232), insulin-stimulated
Method in brief: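 Readout is a bead-proximity SureFire assay pairing a pThr308 Akt antibody with a total Akt2 antibody, lysate and beads incubated 2 h plus 2 h at room temperature in the dark. Before lysis, serum-starved WM115 cells received 100 nM insulin (10 min), then test compound (15 min, 0.3% DMSO); IC50 by 4-parameter equation.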

[5] = biological target: T5, Akt2 (Homo sapiens, UniProt P31751); assay: Akt activation assay (PDK1-mediated activation, LANCE Ultra crosstide TR-FRET), Akt2; format: biochemical; conditions: read-out: Biological Assay 1 IC50 (nM) Akt2
T5 construct: unspecified tag, removed (detagged) (cleaved yes); purchased SignalChem and Proteros (Akt2); Merck Millipore (PDK1) 14-452 (PDK1); none given for Akt2
Method in brief: as §1

[6] = biological target: T6, Akt1 (Homo sapiens, UniProt P31749); assay: Akt activation assay (PDK1-mediated activation, LANCE Ultra crosstide TR-FRET), Akt1; format: biochemical; conditions: read-out: Biological Assay 1 IC50 (nM) Akt1
T6 construct: unspecified tag, removed (detagged) (cleaved yes); purchased SignalChem and Proteros (Akt1); Merck Millipore (PDK1) 14-452 (PDK1); none given for Akt1
Method in brief: as §1

T5 sequence (P31751 whole entry): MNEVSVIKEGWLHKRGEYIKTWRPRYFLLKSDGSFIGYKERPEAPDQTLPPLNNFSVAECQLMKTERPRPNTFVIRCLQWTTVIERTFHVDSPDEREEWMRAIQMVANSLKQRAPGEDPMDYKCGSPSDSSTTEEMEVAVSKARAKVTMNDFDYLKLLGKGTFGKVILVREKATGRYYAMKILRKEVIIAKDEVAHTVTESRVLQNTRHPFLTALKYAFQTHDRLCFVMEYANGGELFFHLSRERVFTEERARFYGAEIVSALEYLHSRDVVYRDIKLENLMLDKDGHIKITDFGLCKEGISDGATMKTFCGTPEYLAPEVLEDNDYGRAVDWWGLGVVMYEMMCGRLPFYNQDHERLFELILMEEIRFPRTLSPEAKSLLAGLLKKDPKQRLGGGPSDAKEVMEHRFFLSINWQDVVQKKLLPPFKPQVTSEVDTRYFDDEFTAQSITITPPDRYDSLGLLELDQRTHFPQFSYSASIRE
T4 sequence (P31751 whole entry): as above
T3 sequence (P31749 whole entry): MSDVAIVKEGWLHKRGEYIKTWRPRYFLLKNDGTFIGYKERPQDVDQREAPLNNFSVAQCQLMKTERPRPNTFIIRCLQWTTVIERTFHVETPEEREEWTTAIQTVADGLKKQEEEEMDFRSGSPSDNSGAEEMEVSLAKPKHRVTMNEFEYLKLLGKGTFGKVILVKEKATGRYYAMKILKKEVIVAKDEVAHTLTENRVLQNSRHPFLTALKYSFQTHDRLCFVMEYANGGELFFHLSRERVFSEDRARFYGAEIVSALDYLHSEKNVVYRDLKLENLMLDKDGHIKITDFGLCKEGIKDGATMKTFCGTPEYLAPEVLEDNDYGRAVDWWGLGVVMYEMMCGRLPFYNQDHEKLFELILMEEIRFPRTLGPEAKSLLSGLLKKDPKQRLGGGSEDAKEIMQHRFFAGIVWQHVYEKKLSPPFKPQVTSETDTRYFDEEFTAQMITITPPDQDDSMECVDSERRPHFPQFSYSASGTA
T6 sequence (P31749 whole entry): as above
T2 sequence (Q9Y243 whole entry): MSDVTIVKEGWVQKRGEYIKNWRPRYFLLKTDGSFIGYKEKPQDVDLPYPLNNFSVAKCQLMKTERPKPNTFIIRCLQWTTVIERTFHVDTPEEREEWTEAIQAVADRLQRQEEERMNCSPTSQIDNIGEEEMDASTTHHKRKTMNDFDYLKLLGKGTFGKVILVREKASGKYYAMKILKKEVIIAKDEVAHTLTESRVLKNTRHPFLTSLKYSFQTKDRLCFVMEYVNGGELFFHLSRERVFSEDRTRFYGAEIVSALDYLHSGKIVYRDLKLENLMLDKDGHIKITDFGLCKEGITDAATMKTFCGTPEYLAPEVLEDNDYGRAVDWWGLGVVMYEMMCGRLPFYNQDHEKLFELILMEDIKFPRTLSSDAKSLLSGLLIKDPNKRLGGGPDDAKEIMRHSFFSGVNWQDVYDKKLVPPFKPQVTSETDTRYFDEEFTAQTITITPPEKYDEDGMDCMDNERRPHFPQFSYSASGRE
T1 sequence (Q9Y243 whole entry): as above

| SMILES | IC50 [1] [nM] | IC50 [2] [nM] | IC50 [3] [nM] | IC50 [4] [nM] | IC50 [5] [nM] | IC50 [6] [nM] |
| --- | --- | --- | --- | --- | --- | --- |
| CC(=O)N(C(C)C)[C@H]1CC[C@H](CC(=O)Nc2cnc(-c3ccc(C(C)(C)N)cc3)c(-c3ccccc3)c2)CC1 [Example A44, N-(6-(4-(2-aminopropan-2-yl)phenyl)-5-phenylpyridin-3-yl)-2-(trans-4-(N-isopropylacetamido)cyclohexyl)acetamide] | 1800 | 440 | > 30000 | 11000 | 13000 | > 30000 |
| CC(C)C(=O)N(C)[C@H]1CC[C@H](CC(=O)Nc2cnc(-c3ccc([C@]4(N)C[C@](C)(O)C4)cc3)c(-c3ccccc3)c2)CC1 [Example 99, N-(4-(2-((6-(4-(trans-1-amino-3-hydroxy-3-methylcyclobutyl)phenyl)-5-phenylpyridin-3-yl)amino)-2-oxoethyl)cyclohexyl)-N-methylisobutyramide] | 6 | 12 | 670 | 390 | 44 | 2400 |
| CCC(=O)N(C)[C@H]1CC[C@H](CC(=O)Nc2cc(-c3ccccc3)c(-c3ccc(C4(N)CC4)c(F)c3)nn2)CC1 [Example A103, N-(trans-4-(2-((6-(4-(1-aminocyclopropyl)-3-fluorophenyl)-5-phenylpyridazin-3-yl)amino)-2-oxoethyl)cyclohexyl)-N-methylpropionamide] | 110 | 730 | > 30000 | > 30000 | 2300 | > 30000 |
| CCC(=O)N(C)[C@H]1CC[C@H](CC(=O)Nc2cc(-c3ccccc3)c(-c3ccc(C4(N)CC4)cc3)nn2)CC1 [Example A91, N-(trans-4-(2-((6-(4-(1-aminocyclopropyl)phenyl)-5-phenylpyridazin-3-yl)amino)-2-oxoethyl)cyclohexyl)-N-methylpropionamide] | 24 | 90 | > 30000 | 2000 | 490 | > 30000 |
| CN(C(=O)C1CC1)[C@H]1CC[C@H](CC(=O)Nc2cc(-c3ccccc3)c(-c3ccc([C@]4(N)C[C@](C)(O)C4)cc3)cn2)CC1 [Example A75, N-(trans-4-(2-((5-(4-(trans-1-amino-3-hydroxy-3-methylcyclobutyl)phenyl)-4-phenylpyridin-2-yl)amino)-2-oxoethyl)cyclohexyl)-N-methylcyclopropanecarboxamide] | 6 | 13 | 1400 | 320 | 140 | 12000 |
| COCC(=O)N(C)[C@H]1CC[C@H](CC(=O)Nc2cc(-c3ccccc3)c(-c3ccc([C@]4(N)C[C@](C)(O)C4)cc3)cn2)CC1 [Example 107, N-(trans-4-(2-((5-(4-(trans-1-amino-3-hydroxy-3-methylcyclobutyl)phenyl)-4-phenylpyridin-2-yl)amino)-2-oxoethyl)cyclohexyl)-2-methoxy-N-methylacetamide] | 9 | 9 | 7300 | 390 | 94 | > 30000 |
| COC(=O)N(C)[C@H]1CC[C@H](CC(=O)Nc2cc(-c3ccccn3)c(-c3ccc(C4(N)CC4)cc3)cn2)CC1 [Example A88, Methyl ((1r,4r)-4-(2-((5′-(4-(1-aminocyclopropyl)phenyl)-[2,4′-bipyridin]-2′-yl)amino)-2-oxoethyl)cyclohexyl)(methyl)carbamate] | 1400 | 1600 | > 30000 | > 30000 | > 27000 | > 30000 |
| CCOC(=O)N(C)[C@H]1CC[C@H](CC(=O)Nc2cnc(-c3ccc([C@]4(N)C[C@](C)(O)C4)cc3)c(-c3ccccc3)c2)CC1 [Example 97, Ethyl (4-(2-((6-(4-(trans-1-amino-3-hydroxy-3-methylcyclobutyl)phenyl)-5-phenylpyridin-3-yl)amino)-2-oxoethyl)cyclohexyl)(methyl)carbamate] | 5 | 6 | 880 | 600 | 48 | 2900 |
| CC(=O)N[C@H]1CC[C@H](CC(=O)Nc2cnc(-c3ccc(C(C)(C)N)cc3)c(-c3ccccc3)c2)CC1 [Example A19, 2-(trans-4-acetamidocyclohexyl)-N-(6-(4-(2-aminopropan-2-yl)phenyl)-5-phenylpyridin-3-yl)acetamide] | 110 | 1800 | > 30000 | > 30000 | > 50000 | > 45000 |
| CCN(C(=O)C1CC1)[C@H]1CC[C@H](CC(=O)Nc2cc(-c3ccccc3)c(-c3ccc([C@]4(N)C[C@](C)(O)C4)cc3)nn2)CC1 [Example 114, N-(trans-4-(2-((6-(4-(trans-1-amino-3-hydroxy-3-methylcyclobutyl)phenyl)-5-phenylpyridazin-3-yl)amino)-2-oxoethyl)cyclohexyl)-N-ethylcyclopropanecarboxamide] | 7 | 5 | 3300 | 440 | 110 | > 23000 |
| CN(C(=O)C1CC1)[C@H]1CC[C@H](CC(=O)Nc2cnc(-c3ccc(C(C)(C)N)cc3)c(-c3ccccc3)c2)CC1 [Example A29, N-(trans-4-(2-((6-(4-(2-aminopropan-2-yl)phenyl)-5-phenylpyridin-3-yl)amino)-2-oxoethyl)cyclohexyl)-N-methylcyclopropanecarboxamide] | 490 | 150 | > 28000 | 5800 | 5700 | > 30000 |
| CC(C)(N)c1ccc(-c2cnc(NC(=O)C[C@H]3CC[C@H](N4CCCC4=O)CC3)cc2-c2ccccc2)cc1 [Example A49, N-(5-(4-(2-aminopropan-2-yl)phenyl)-4-phenylpyridin-2-yl)-2-(trans-4-(2-oxopyrrolidin-1-yl)cyclohexyl)acetamide] | 120 | 200 | > 30000 | 4400 | 3600 | > 30000 |
| NC1(c2ccc(-c3ncc(NC(=O)C[C@H]4CC[C@H](N5CCOCC5)CC4)cc3-c3ccsc3)cc2)CCC1 [Example 38, N-(6-(4-(1-aminocyclobutyl)phenyl)-5-(thiophen-3-yl)pyridin-3-yl)-2-(trans-4-morpholinocyclohexyl)acetamide] | 560 | 92 | 7000 | 3000 | 1900 | 9000 |
| COC(=O)N(C)[C@H]1CC[C@H](CC(=O)Nc2cc(-c3ccccc3)c(-c3ccc([C@]4(N)C[C@](C)(O)C4)cc3)nn2)CC1 [Example 59, Methyl (trans-4-(2-((6-(4-(trans-1-amino-3-hydroxy-3-methylcyclobutyl)phenyl)-5-phenylpyridazin-3-yl)amino)-2-oxoethyl)cyclohexyl)(methyl)carbamate] | 4 | 24 | 1600 | 380 | 50 | 1400 |
| CN(C(=O)C1CC1)[C@H]1CC[C@H](CC(=O)Nc2cc(-c3ccccc3)c(-c3ccc([C@]4(N)C[C@](C)(O)C4)cc3)nn2)CC1 [Example A78, N-(trans-4-(2-((6-(4-(trans-1-amino-3-hydroxy-3-methylcyclobutyl)phenyl)-5-phenylpyridazin-3-yl)amino)-2-oxoethyl)cyclohexyl)-N-methylcyclopropanecarboxamide] | 4 | 8 | 1400 | 370 | 71 | 1900 |

Reference: patent publication US10336702B2, “Pharmaceutically active compounds” (BERGENBIO ASA, priority 2015, dated 2019)
